In US8952157B2, “Apoptosis-inducing agents for the treatment of cancer and immune and autoimmune diseases” (AbbVie Inc., priority 2008, dated 2015):

target: GST-Bcl-2 (Homo sapiens (Human), UniProt P10415); test: Time Resolved-Fluorescence Resonance Energy Transfer (TR-FRET) Bcl-2 binding assay; conditions: GST-Bcl-2 1 nM, F-Bak peptide probe 100 nM, Tb-anti-GST antibody 1 nM; Ki by Wang's equation
Method in brief: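 Competition TR-FRET: GST-Bcl-2 with fluorescent Bak peptide probe and Tb-anti-GST antibody, compounds serially diluted from 50 μM (2× start, 10% DMSO).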

GST-Bcl-2, sequence (P10415 whole entry): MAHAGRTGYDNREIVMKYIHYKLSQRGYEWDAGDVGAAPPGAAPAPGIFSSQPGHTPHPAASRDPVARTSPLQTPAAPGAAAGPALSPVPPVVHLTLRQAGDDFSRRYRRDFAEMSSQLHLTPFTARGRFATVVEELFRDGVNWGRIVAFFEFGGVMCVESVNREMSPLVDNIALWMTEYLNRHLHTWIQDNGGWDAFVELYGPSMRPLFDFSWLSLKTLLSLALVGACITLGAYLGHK

SMILES | Ki
CC1(C)CCC(CN2CCN(c3ccc(C(=O)NS(=O)(=O)c4cnc(OCC5COCCO5)c(Br)c4)c(Oc4cc5cc[nH]c5cc4F)c3)CC2)=C(c2ccc(Cl)cc2)C1 (stereo not shown) [Example 306, N-{[5-bromo-6-(1,4-dioxan-2-ylmethoxy)pyridin-3-yl]sulfonyl}-4-(4-{[2-(4-chlorophenyl)-4,4-dimethylcyclohex-1-en-1-yl]methyl}piperazin-1-yl)-2-[(6-fluoro-1H-indol-5-yl)oxy]benzamide] | 0.671 nM
CC1(C)CCC(CN2CCN(c3ccc(C(=O)NS(=O)(=O)c4cnc(NC5CCN(C6CCOCC6)CC5)c(Br)c4)c(Oc4cc5cc[nH]c5cc4F)c3)CC2)=C(c2ccc(Cl)cc2)C1 [Example 312, N-({5-bromo-6-[(1-tetrahydro-2H-pyran-4-ylpiperidin-4-yl)amino]pyridin-3-yl}sulfonyl)-4-(4-{[2-(4-chlorophenyl)-4,4-dimethylcyclohex-1-en-1-yl]methyl}piperazin-1-yl)-2-[(6-fluoro-1H-indol-5-yl)oxy]benzamide] | 0.531 nM
CC1(C)CCC(CN2CCN(c3ccc(C(=O)NS(=O)(=O)c4ccc(N[C@@H]5CCN(C6CC6)C5)c([N+](=O)[O-])c4)c(Oc4cnc(N)c(Cl)c4)c3)CC2)=C(c2ccc(Cl)cc2)C1 [Example 370, 2-[(6-amino-5-chloropyridin-3-yl)oxy]-4-(4-{[2-(4-chlorophenyl)-4,4-dimethylcyclohex-1-en-1-yl]methyl}piperazin-1-yl)-N-[(4-{[(3R)-1-cyclopropylpyrrolidin-3-yl]amino}-3-nitrophenyl)sulfonyl]benzamide] | < 0.01 nM
CC1(C)CCC(CN2CCN(c3ccc(C(=O)NS(=O)(=O)c4ccc(NC5CCN(Cc6ccsc6)CC5)c([N+](=O)[O-])c4)c(Oc4cccc(F)c4F)c3)CC2)=C(c2ccc(Cl)cc2)C1 [Example 136, 4-(4-{[2-(4-chlorophenyl)-4,4-dimethylcyclohex-1-en-1-yl]methyl}piperazin-1-yl)-2-(2,3-difluorophenoxy)-N-[(3-nitro-4-{[1-(thien-3-ylmethyl)piperidin-4-yl]amino}phenyl)sulfonyl]benzamide] | 0.177 nM
COCCNc1ccc(S(=O)(=O)NC(=O)c2ccc(N3CCN(CC4=C(c5ccc(Cl)cc5)CC(C)(C)CC4)CC3)cc2Oc2cc3cc[nH]c3cc2F)cc1[N+](=O)[O-] [Example 263, 4-(4-{[2-(4-chlorophenyl)-4,4-dimethylcyclohex-1-en-1-yl]methyl}piperazin-1-yl)-2-[(6-fluoro-1H-indol-5-yl)oxy]-N-({4-[(2-methoxyethyl)amino]-3-nitrophenyl}sulfonyl)benzamide] | 0.11 nM
CC1(C)CCC(CN2CCN(c3ccc(C(=O)NS(=O)(=O)c4ccc(NC5CCN(C6CCOCC6)CC5)c([N+](=O)[O-])c4)c(Oc4cc5cc[nH]c5c(F)c4F)c3)CC2)=C(c2ccc(Cl)cc2)C1 [Example 201, 4-(4-{[2-(4-chlorophenyl)-4,4-dimethylcyclohex-1-en-1-yl]methyl}piperazin-1-yl)-2-[(6,7-difluoro-1H-indol-5-yl)oxy]-N-({3-nitro-4-[(1-tetrahydro-2H-pyran-4-ylpiperidin-4-yl)amino]phenyl}sulfonyl)benzamide] | 0.01 nM
CC1(C)CCC(CN2CCN(c3ccc(C(=O)NS(=O)(=O)c4ccc(N[C@@H]5CCN(C(CF)CF)C5)c([N+](=O)[O-])c4)c(Oc4cnc(N)c(Cl)c4)c3)CC2)=C(c2ccc(Cl)cc2)C1 [Example 394, 2-[(6-amino-5-chloropyridin-3-yl)oxy]-4-(4-{[2-(4-chlorophenyl)-4,4-dimethylcyclohex-1-en-1-yl]methyl}piperazin-1-yl)-N-{[4-({(3R)-1-[2-fluoro-1-(fluoromethyl)ethyl]pyrrolidin-3-yl}amino)-3-nitrophenyl]sulfonyl}benzamide] | 0.018 nM
CC1(C)CCC(CN2CCN(c3ccc(C(=O)NS(=O)(=O)c4cnc(OC5CCN(C6CCOCC6)CC5)c(C#N)c4)c(Oc4cc5cc[nH]c5cc4F)c3)CC2)=C(c2ccc(Cl)cc2)C1 [Example 325, 4-(4-{[2-(4-chlorophenyl)-4,4-dimethylcyclohex-1-en-1-yl]methyl}piperazin-1-yl)-N-({5-cyano-6-[(1-tetrahydro-2H-pyran-4-ylpiperidin-4-yl)oxy]pyridin-3-yl}sulfonyl)-2-[(6-fluoro-1H-indol-5-yl)oxy]benzamide] | 0.183 nM
CN1CCC(Nc2ccc(S(=O)(=O)NC(=O)c3ccc(N4CCN(CC5=C(c6ccc(Cl)cc6)CC(C)(C)CC5)CC4)cc3Oc3ccccc3Cl)cc2S(=O)(=O)C(F)(F)F)CC1 [Example 59, 2-(2-chlorophenoxy)-4-(4-((2-(4-chlorophenyl)-4,4-dimethylcyclohex-1-en-1-yl)methyl)piperazin-1-yl)-N-((4-((1-methylpiperidin-4-yl)amino)-3-((trifluoromethyl)sulfonyl)phenyl)sulfonyl)benzamide] | 0.184 nM
CC1(C)CCC(CN2CCN(c3ccc(C(=O)NS(=O)(=O)c4ccc(NC5CCN(C6CCOCC6)CC5)c([N+](=O)[O-])c4)c(-c4ccc(N)nc4)c3)CC2)=C(c2ccc(Cl)cc2)C1 [Example 255, 2-(6-aminopyridin-3-yl)-4-(4-{[2-(4-chlorophenyl)-4,4-dimethylcyclohex-1-en-1-yl]methyl}piperazin-1-yl)-N-({3-nitro-4-[(1-tetrahydro-2H-pyran-4-ylpiperidin-4-yl)amino]phenyl}sulfonyl)benzamide] | 7.01 nM
CN1CC[C@@H](Nc2ccc(S(=O)(=O)NC(=O)c3ccc(N4CCN(CC5=C(c6ccc(Cl)cc6)CC(C)(C)CC5)CC4)cc3Oc3cccc(Cl)c3)cc2[N+](=O)[O-])C1 [Example 195, 2-(3-chlorophenoxy)-4-(4-{[2-(4-chlorophenyl)-4,4-dimethylcyclohex-1-en-1-yl]methyl}piperazin-1-yl)-N-[(4-{[(3R)-1-methylpyrrolidin-3-yl]amino}-3-nitrophenyl)sulfonyl]benzamide] | 0.684 nM
CN1CCC(Nc2ccc(S(=O)(=O)NC(=O)c3ccc(N4CCN(CC5=C(c6ccc(Cl)cc6)CC(C)(C)CC5)CC4)cc3Oc3cc4cc[nH]c4c(F)c3F)cc2[N+](=O)[O-])CC1 [Example 200, 4-(4-{[2-(4-chlorophenyl)-4,4-dimethylcyclohex-1-en-1-yl]methyl}piperazin-1-yl)-2-[(6,7-difluoro-1H-indol-5-yl)oxy]-N-({4-[(1-methylpiperidin-4-yl)amino]-3-nitrophenyl}sulfonyl)benzamide] | 0.081 nM
CN1CCC(Nc2ccc(S(=O)(=O)NC(=O)c3ccc(N4CCN(CC5=C(c6ccc(Cl)cc6)CC(C)(C)CC5)CC4)cc3Oc3ccc(O)cc3Cl)cc2[N+](=O)[O-])CC1 [Example 207, 2-(2-chloro-4-hydroxyphenoxy)-4-(4-{[2-(4-chlorophenyl)-4,4-dimethylcyclohex-1-en-1-yl]methyl}piperazin-1-yl)-N-({4-[(1-methylpiperidin-4-yl)amino]-3-nitrophenyl}sulfonyl)benzamide] | 0.074 nM
Cc1nc2cc(Oc3cc(N4CCN(Cc5ccccc5-c5ccc(Cl)cc5)CC4)ccc3C(=O)NS(=O)(=O)c3ccc(NCCCN(C)C)c([N+](=O)[O-])c3)ccc2s1 [Example 25, 4-(4-((4′-chloro-1,1′-biphenyl-2-yl)methyl)piperazin-1-yl)-N-((4-((3-(dimethylamino)propyl)amino)-3-nitrophenyl)sulfonyl)-2-((2-methyl-1,3-benzothiazol-5-yl)oxy)benzamide] | 1.5 nM
O=C(NS(=O)(=O)c1ccc(NCC2CCOCC2)cc1)c1ccc(N2CCN(Cc3ccccc3-c3ccc(Cl)cc3)CC2)cc1Oc1cccc([N+](=O)[O-])c1 [Example 77, 4-(4-((4′-chloro-1,1′-biphenyl-2-yl)methyl)piperazin-1-yl)-2-(3-nitrophenoxy)-N-((4-((tetrahydro-2H-pyran-4-ylmethyl)amino)phenyl)sulfonyl)benzamide] | 451 nM
CC1(C)CCC(CN2CCN(c3ccc(C(=O)NS(=O)(=O)c4ccc(NC[C@@H]5CCCOC5)c([N+](=O)[O-])c4)c(Oc4cc5cc[nH]c5cc4F)c3)CC2)=C(c2ccc(Cl)cc2)C1 [Example 258, 4-(4-{[2-(4-chlorophenyl)-4,4-dimethylcyclohex-1-en-1-yl]methyl}piperazin-1-yl)-2-[(6-fluoro-1H-indol-5-yl)oxy]-N-[(3-nitro-4-{[(3S)-tetrahydro-2H-pyran-3-ylmethyl]amino}phenyl)sulfonyl]benzamide] | 0.083 nM
CC(C)(C)OC(=O)Nc1cccc(Oc2cc(N3CCN(Cc4ccccc4-c4ccc(Cl)cc4)CC3)ccc2C(=O)NS(=O)(=O)c2ccc(NCC3CCOCC3)c([N+](=O)[O-])c2)c1 [Example 85, tert-butyl 3-(5-(4-((4′-chloro-1,1′-biphenyl-2-yl)methyl)piperazin-1-yl)-2-((((3-nitro-4-((tetrahydro-2H-pyran-4-ylmethyl)amino)phenyl)sulfonyl)amino)carbonyl)phenoxy)phenylcarbamate] | 5.63 nM
CN1CCC(Nc2ccc(S(=O)(=O)NC(=O)c3ccc(N4CCN(CC5=C(c6ccc(Cl)cc6)CC(C)(C)CC5)CC4)cc3Oc3cccc(C(F)(F)F)c3)cc2[N+](=O)[O-])CC1 [Example 57, 4-(4-((2-(4-chlorophenyl)-4,4-dimethylcyclohex-1-en-1-yl)methyl)piperazin-1-yl)-N-((4-((1-methylpiperidin-4-yl)amino)-3-nitrophenyl)sulfonyl)-2-(3-(trifluoromethyl)phenoxy)benzamide] | 0.147 nM
CC1(C)CCC(CN2CCN(c3ccc(C(=O)NS(=O)(=O)c4ccc(OCC5(F)CCOCC5)c([N+](=O)[O-])c4)c(Oc4cccc5c4CC(=O)N5)c3)CC2)=C(c2ccc(Cl)cc2)C1 [Example 313, 4-(4-{[2-(4-chlorophenyl)-4,4-dimethylcyclohex-1-en-1-yl]methyl}piperazin-1-yl)-N-({4-[(4-fluorotetrahydro-2H-pyran-4-yl)methoxy]-3-nitrophenyl}sulfonyl)-2-[(2-oxo-2,3-dihydro-1H-indol-4-yl)oxy]benzamide] | < 0.01 nM
